How the values were obtained:
Assay in all cases: Inhibition of guinea pig heart Phosphodiesterase 3
PDE3 (Cavia porcellus) [1] = molecular target: PDE3 (Cavia porcellus)
PDE3 (Cavia porcellus) [2] = molecular target: PDE3 (Cavia porcellus); remark: listed apart in the source
PDE3 (Cavia porcellus) [3] = molecular target: PDE3 (Cavia porcellus); remark: listed apart in the source

IC50 (PDE3 (Cavia porcellus) [1]): 50 nM | IC50 (PDE3 (Cavia porcellus) [2]): 60 nM | IC50 (PDE3 (Cavia porcellus) [3]): 60 nM
SMILES: COc1ccc(C(=O)N2CCCc3cc(C4=NNC(=O)S[C@@H]4C)ccc32)cc1OC
